Measured values: ChEMBL document CHEMBL1629620 (Antimicrob Agents Chemother, 2009)

How the values were obtained:
HFF = experiment: Antiproliferative activity against HFF after 3 days by coulter counter assay; type: cell-based; conditions: Homo sapiens, 72 h
[1] = Cytotoxicity against HFF after 7 days by neutral red uptake assay; type: cell-based; conditions: human, HFF cells
Vaccinia virus [2] = experiment: Antiviral activity against Vaccinia virus Copenhagen infected in HFF assessed as reduction of plaque formation after 3 days; type: functional, organism-based; conditions: Orthopoxvirus vaccinia, 72 h
Cowpox virus [3] = experiment: Antiviral activity against Cowpox virus Brighton infected in HFF assessed as reduction of plaque formation after 3 days; type: functional, organism-based; conditions: 72 h
Vaccinia virus [4] = experiment: Ratio of compound EC50 to cidofovir EC50 for Vaccinia virus Copenhagen; type: functional, Orthopoxvirus vaccinia
Vaccinia virus [5] = experiment: Ratio of compound EC50 to cidofovir EC50 for Vaccinia virus WR; type: functional, Orthopoxvirus vaccinia
Cowpox virus [6] = experiment: Ratio of compound EC50 to cidofovir EC50 for Cowpox virus Brighton; type: functional
Vaccinia virus [7] = experiment: Antiviral activity against Vaccinia virus WR infected in BALB/c mouse assessed as uncured animal at 15 mg/kg, ip bid for 5 days administered 24 hrs after infection relative to control; type: functional, Orthopoxvirus vaccinia; conditions: route intraperitoneal
Vaccinia virus [8] = experiment: Antiviral activity against Vaccinia virus WR infected in BALB/c mouse assessed as uncured animal at 50 mg/kg, ip bid for 5 days administered 24 hrs after infection relative to control; type: functional, Orthopoxvirus vaccinia; conditions: route intraperitoneal
Vaccinia virus [9] = experiment: Antiviral activity against Vaccinia virus WR infected in HFF assessed as inhibition of DNA synthesis after 24 hrs by PCR analysis; type: functional, organism-based; conditions: Orthopoxvirus vaccinia
Vaccinia virus [10] = experiment: Antiviral activity against Vaccinia virus WR infected in HFF assessed as reduction of plaque formation after 3 days; type: functional, organism-based; conditions: Orthopoxvirus vaccinia, 72 h
Cowpox virus [11] = experiment: Antiviral activity against Cowpox virus Brighton infected in BALB/c mouse assessed as uncured animal at 1.5 mg/kg, po bid for 5 days administered 3 days after infection relative to control; type: functional
Cowpox virus [12] = experiment: Antiviral activity against Cowpox virus Brighton infected in BALB/c mouse assessed as day of death at 15 mg/kg, po bid for 5 days administered 3 days after infection; type: functional
Cowpox virus [13] = experiment: Antiviral activity against Cowpox virus Brighton infected in BALB/c mouse assessed as day of death at 1.5 mg/kg, po bid for 5 days administered 3 days after infection; type: functional
Cowpox virus [14] = experiment: Antiviral activity against Cowpox virus Brighton infected in BALB/c mouse assessed as uncured animal at 5 mg/kg, po bid for 5 days administered 4 days after infection relative to control; type: functional
Cowpox virus [15] = experiment: Antiviral activity against Cowpox virus Brighton infected in BALB/c mouse assessed as day of death at 5 mg/kg, po bid for 5 days administered 4 days after infection; type: functional
Cowpox virus [16] = experiment: Antiviral activity against Cowpox virus Brighton infected in BALB/c mouse assessed as uncured animal at 5 mg/kg, po bid for 5 days administered 5 days after infection relative to control; type: functional
Cowpox virus [17] = experiment: Antiviral activity against Cowpox virus Brighton infected in BALB/c mouse assessed as day of death at 5 mg/kg, po bid for 5 days administered 5 days after infection; type: functional
Cowpox virus [18] = experiment: Antiviral activity against Cowpox virus Brighton infected in BALB/c mouse assessed as uncured animal at 5 mg/kg, po bid for 5 days administered 8 days after infection relative to control; type: functional
Cowpox virus [19] = experiment: Antiviral activity against Cowpox virus Brighton infected in BALB/c mouse assessed as day of death at 5 mg/kg, po bid for 5 days administered 8 days after infection; type: functional
Vaccinia virus [20] = experiment: Antiviral activity against Vaccinia virus WR infected in BALB/c mouse assessed as uncured animal at 5 mg/kg, ip bid for 5 days administered 24 hrs after infection relative to control; type: functional, Orthopoxvirus vaccinia; conditions: route intraperitoneal
Vaccinia virus [21] = experiment: Antiviral activity against Vaccinia virus WR infected in BALB/c mouse assessed as day of death at 15 mg/kg, ip bid for 5 days administered 24 hrs after infection; type: functional, Orthopoxvirus vaccinia; conditions: route intraperitoneal
Cowpox virus [22] = experiment: Antiviral activity against Cowpox virus Brighton infected in BALB/c mouse assessed as uncured animal at 15 mg/kg, ip qd for 5 days administered 24 hrs after infection relative to control; type: functional; conditions: route intraperitoneal
Cowpox virus [23] = experiment: Antiviral activity against Cowpox virus Brighton infected in BALB/c mouse assessed as uncured animal at 5 mg/kg, ip bid for 5 days administered 24 hrs after infection relative to control; type: functional; conditions: route intraperitoneal
Cowpox virus [24] = experiment: Antiviral activity against Cowpox virus Brighton infected in BALB/c mouse assessed as uncured animal at 1.5 mg/kg, ip bid for 5 days administered 24 hrs after infection relative to control; type: functional; conditions: route intraperitoneal
Cowpox virus [25] = experiment: Antiviral activity against Cowpox virus Brighton infected in BALB/c mouse assessed as uncured animal at 15 mg/kg, po bid for 5 days administered 24 hrs after infection relative to control; type: functional
Cowpox virus [26] = experiment: Antiviral activity against Cowpox virus Brighton infected in BALB/c mouse assessed as uncured animal at 5 mg/kg, po bid for 5 days administered 24 hrs after infection relative to control; type: functional
Cowpox virus [27] = experiment: Antiviral activity against Cowpox virus Brighton infected in BALB/c mouse assessed as uncured animal at 1.5 mg/kg, po bid for 5 days administered 24 hrs after infection relative to control; type: functional
Cowpox virus [28] = experiment: Antiviral activity against Cowpox virus Brighton infected in BALB/c mouse assessed as uncured animal at 15 mg/kg, po bid for 5 days administered 2 days after infection relative to control; type: functional
Cowpox virus [29] = experiment: Antiviral activity against Cowpox virus Brighton infected in BALB/c mouse assessed as uncured animal at 5 mg/kg, po bid for 5 days administered 2 days after infection relative to control; type: functional
Cowpox virus [30] = experiment: Antiviral activity against Cowpox virus Brighton infected in BALB/c mouse assessed as uncured animal at 1.5 mg/kg, po bid for 5 days administered 2 days after infection relative to control; type: functional
Cowpox virus [31] = experiment: Antiviral activity against Cowpox virus Brighton infected in BALB/c mouse assessed as day of death at 15 mg/kg, po bid for 5 days administered 2 days after infection; type: functional
Cowpox virus [32] = experiment: Antiviral activity against Cowpox virus Brighton infected in BALB/c mouse assessed as day of death at 5 mg/kg, po bid for 5 days administered 2 days after infection; type: functional
Cowpox virus [33] = experiment: Antiviral activity against Cowpox virus Brighton infected in BALB/c mouse assessed as uncured animal at 15 mg/kg, po bid for 5 days administered 3 days after infection relative to control; type: functional
Cowpox virus [34] = experiment: Antiviral activity against Cowpox virus Brighton infected in BALB/c mouse assessed as uncured animal at 5 mg/kg, po bid for 5 days administered 3 days after infection relative to control; type: functional
Vaccinia virus [35] = experiment: Antiviral activity against Vaccinia virus WR infected in BALB/c mouse assessed as uncured animal at 15 mg/kg, ip qd for 5 days administered 24 hrs after infection relative to control; type: functional, Orthopoxvirus vaccinia; conditions: route intraperitoneal
Cowpox virus [36] = experiment: Antiviral activity against Cowpox virus Brighton infected in BALB/c mouse assessed as uncured animal at 15 mg/kg, ip qd for 5 days administered 4 days after infection relative to control; type: functional; conditions: route intraperitoneal
Cowpox virus [37] = experiment: Antiviral activity against Cowpox virus Brighton infected in BALB/c mouse assessed as uncured animal at 15 mg/kg, ip qd for 5 days administered 5 days after infection relative to control; type: functional; conditions: route intraperitoneal
Cowpox virus [38] = experiment: Antiviral activity against Cowpox virus Brighton infected in BALB/c mouse assessed as day of death at 15 mg/kg, ip qd for 5 days administered 5 days after infection; type: functional; conditions: route intraperitoneal
Cowpox virus [39] = experiment: Antiviral activity against Cowpox virus Brighton infected in BALB/c mouse assessed as uncured animal at 15 mg/kg, ip qd for 5 days administered 8 days after infection relative to control; type: functional; conditions: route intraperitoneal
Cowpox virus [40] = experiment: Antiviral activity against Cowpox virus Brighton infected in BALB/c mouse assessed as day of death at 15 mg/kg, ip qd for 5 days administered 8 days after infection; type: functional; conditions: route intraperitoneal
Cowpox virus [41] = experiment: Antiviral activity against Cowpox virus Brighton infected in BALB/c mouse assessed as uncured animal at 15 mg/kg, ip qd for 5 days administered 2 days after infection relative to control; type: functional; conditions: route intraperitoneal
Cowpox virus [42] = experiment: Antiviral activity against Cowpox virus Brighton infected in BALB/c mouse assessed as uncured animal at 15 mg/kg, ip qd for 5 days administered 3 days after infection relative to control; type: functional; conditions: route intraperitoneal

O=c1[nH]c(=O)n([C@H]2C[C@H](O)[C@@H](CO)S2)cc1Br
IC50 (HFF): 200 nM | CC50 at 168 h [1]: > 100000 nM | EC50 (Vaccinia virus [2]): 90 nM | EC50 (Cowpox virus [3]): 50 nM | Ratio EC50 (Vaccinia virus [4]): 20 | Ratio EC50 (Vaccinia virus [5]): 20 | Ratio EC50 (Cowpox virus [6]): 20

O=c1[nH]c(=O)n([C@H]2C[C@H](O)[C@@H](CO)S2)cc1C(F)(F)F
IC50 (HFF): 140 nM | CC50 at 168 h [1]: > 100000 nM | EC50 (Vaccinia virus [2]): 100 nM | EC50 (Cowpox virus [3]): 80 nM | Ratio EC50 (Vaccinia virus [4]): 20 | Ratio EC50 (Vaccinia virus [5]): 20 | Ratio EC50 (Cowpox virus [6]): 20

O=c1[nH]c(=O)n([C@H]2C[C@H](O)[C@@H](CO)S2)cc1I
Activity (Vaccinia virus [7]): 7% | Activity (Vaccinia virus [8]): 0% | EC50 (Vaccinia virus [9]): 600 nM | IC50 (HFF): 3000 nM | CC50 at 168 h [1]: > 100000 nM | EC50 (Vaccinia virus [2]): 500 nM | EC50 (Vaccinia virus [10]): 40 nM | Activity (Cowpox virus [11]): 13% | Activity (Cowpox virus [12]): 14% | Activity (Cowpox virus [13]): 14 days | Activity (Cowpox virus [14]): 27% | Activity (Cowpox virus [15]): 13.3 days | Activity (Cowpox virus [16]): 87% | Activity (Cowpox virus [17]): 9.8 days | Activity (Cowpox virus [18]): 100% | Activity (Cowpox virus [19]): 9.7 days | Activity (Vaccinia virus [20]): 0% | Activity (Vaccinia virus [21]): 11% | Activity (Cowpox virus [22]): 0% | Activity (Cowpox virus [23]): 0% | Activity (Cowpox virus [24]): 0% | Activity (Cowpox virus [25]): 0% | Activity (Cowpox virus [26]): 0% | Activity (Cowpox virus [27]): 0% | Activity (Cowpox virus [28]): 7% | Activity (Cowpox virus [29]): 13% | Activity (Cowpox virus [30]): 0% | Activity (Cowpox virus [31]): 18% | Activity (Cowpox virus [32]): 16 days | Activity (Cowpox virus [33]): 7% | Activity (Cowpox virus [34]): 0%

CC(=O)OC[C@H]1S[C@@H](n2cc(I)c(=O)[nH]c2=O)C[C@@H]1OC(C)=O
IC50 (HFF): 26000 nM | CC50 at 168 h [1]: > 100000 nM | EC50 (Vaccinia virus [2]): 900 nM | EC50 (Cowpox virus [3]): 330 nM | Ratio EC50 (Vaccinia virus [4]): 20 | Ratio EC50 (Vaccinia virus [5]): 20 | Ratio EC50 (Cowpox virus [6]): 20

Nc1nc(=O)n([C@@H]2S[C@H](CO)[C@@H](O)[C@@H]2O)cc1F
IC50 (HFF): < 30 nM | CC50 at 168 h [1]: > 100000 nM | EC50 (Vaccinia virus [2]): 100 nM | EC50 (Cowpox virus [3]): 400 nM | Ratio EC50 (Vaccinia virus [4]): 20 | Ratio EC50 (Vaccinia virus [5]): 20 | Ratio EC50 (Cowpox virus [6]): 20

Cc1cn([C@H]2C[C@H](O)[C@@H](CO)S2)c(=O)[nH]c1=O [4'-THIOTHYMIDINE]
IC50 (HFF): < 30 nM | CC50 at 168 h [1]: > 100000 nM | EC50 (Vaccinia virus [2]): 30 nM | EC50 (Cowpox virus [3]): 20 nM | Ratio EC50 (Vaccinia virus [4]): 20 | Ratio EC50 (Vaccinia virus [5]): 20 | Ratio EC50 (Cowpox virus [6]): 20

Nc1ccn(C[C@@H](CO)OCP(=O)(O)O)c(=O)n1.O.O [CIDOFOVIR]
Activity (Vaccinia virus [35]): 0% | IC50 (HFF): 1900 nM | CC50 at 168 h [1]: > 317000 nM | EC50 (Vaccinia virus [2]): 19000 nM | EC50 (Vaccinia virus [10]): 10000 nM | Activity (Cowpox virus [36]): 0% | Activity (Cowpox virus [37]): 80% | Activity (Cowpox virus [38]): 10.5 days | Activity (Cowpox virus [39]): 27% | Activity (Cowpox virus [40]): 12 days | Activity (Cowpox virus [22]): 0% | Activity (Cowpox virus [41]): 0% | Activity (Cowpox virus [42]): 0%

O=c1[nH]c(=O)n([C@H]2C[C@H](O)[C@@H](CO)O2)cc1I [IDOXURIDINE]
EC50 (Vaccinia virus [9]): 17000 nM | EC50 (Vaccinia virus [10]): 2800 nM

O=C(NN1C(=O)[C@@H]2[C@@H]3C=C[C@@H]([C@H]4C[C@@H]34)[C@@H]2C1=O)c1ccc(C(F)(F)F)cc1 [TECOVIRIMAT]
EC50 (Vaccinia virus [9]): > 100000 nM | EC50 (Vaccinia virus [10]): 70 nM

Nc1ccn([C@@H]2S[C@H](CO)[C@@H](O)[C@@H]2O)c(=O)n1 [THIARABINE]
IC50 (HFF): 1000 nM | CC50 at 168 h [1]: > 88000 nM | EC50 (Vaccinia virus [2]): 300 nM | EC50 (Cowpox virus [3]): 1600 nM | Ratio EC50 (Vaccinia virus [4]): 20 | Ratio EC50 (Vaccinia virus [5]): 20 | Ratio EC50 (Cowpox virus [6]): 20
